From patent publication US8813566B2, “Instrumentation and analytical techniques suitable for broadband acoustic resonance dissolution spectroscopy” (University College Cork—National University of Ireland, priority 2008, dated 2014)

Experiment: Broadband acoustic resonance dissolution spectroscopy (BARDS) dissolution profile in distilled water
Assay type: physicochemical
Conditions: 0.4M in 100 ml of double distilled water

- time required for complete dissolution: 75 s
Structure (SMILES): O=S(=O)([O-])[O-].[Cu+2] [anhydrous form, Anhydrous copper sulphate]
